Measured values taken from the supplement of paper PMC11579375.

Experiments:
Assay in all cases: area under the viability dose-response curve (AUC) (AUC (arbitrary units, max 500 = no viability loss)); higher = less sensitive (higher viability)
Settings in all cases: exposure time: 120 h; concentration range: 0.1 nM - 10 µM, 6 doses
[1] = system: 10F2 (fetal-II hepatoblastoma organoid with high liver markers)
Experimental: (§1)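 Patient-derived hepatoblastoma tumor organoids (about 50 organoids per well, 384-well plates, medium with 5% BME) were treated with the PMC pediatric cancer drug library. Each drug was tested in duplicate at 6 concentrations (0.1 nM to 10 µM, 10-fold steps).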

[2] = system: 135F2 (fetal-II hepatoblastoma organoid with high liver markers)
Experimental: as §1

[3] = system: 13E (embryonal-type hepatoblastoma organoid)
Experimental: as §1

[4] = system: 13F2 (fetal-II hepatoblastoma organoid with high liver markers)
Experimental: as §1

[5] = system: 17E (embryonal-type hepatoblastoma organoid)
Experimental: as §1

[6] = system: 17F1 (fetal-I hepatoblastoma organoid with intermediate liver markers)
Experimental: as §1

[7] = system: 22E (embryonal-type hepatoblastoma organoid)
Experimental: as §1

[8] = system: 27F1 (fetal-I hepatoblastoma organoid with intermediate liver markers)
Experimental: as §1

[9] = system: 3E (embryonal-type hepatoblastoma organoid)
Experimental: as §1

[10] = system: 8F1 (fetal-I hepatoblastoma organoid with intermediate liver markers)
Experimental: as §1

[11] = system: 96F1 (fetal-I hepatoblastoma organoid with intermediate liver markers)
Experimental: as §1

SMILES | area under the viability dose-response curve [1] | area under the viability dose-response curve [2] | area under the viability dose-response curve [3] | area under the viability dose-response curve [4] | area under the viability dose-response curve [5] | area under the viability dose-response curve [6] | area under the viability dose-response curve [7] | area under the viability dose-response curve [8] | area under the viability dose-response curve [9] | area under the viability dose-response curve [10] | area under the viability dose-response curve [11]
C=CC(=O)N1C[C@H](Nc2ncnc3[nH]ccc23)CC[C@@H]1C | 426 | 471 | > 500 | 460 | > 500 | 488 | > 500 | > 500 | 463 | 495 | 482
CCn1c(-c2nonc2N)nc2cnc(Oc3cccc(NC(=O)c4ccc(OCCN5CCOCC5)cc4)c3)cc21 | 348 | 441 | 478 | 392 | 450 | 451 | 468 | 481 | 493 | 467 | 469
CCn1cc(-c2ccnc3[nH]c(-c4cccc(CN(C)C)c4)cc23)c(-c2ccc(NC(=O)N(C)C)cc2)n1 | 307 | 370 | 382 | 298 | 297 | 477 | 408 | 387 | 322 | 458 | 413
CNc1nc(-c2nc3ccc(N4CCN(C)CC4)cc3n2Cc2ccccc2)cn2c(C)nnc12 | 328 | 309 | 411 | 260 | 433 | 460 | 415 | 479 | 321 | > 500 | 492
COc1ccc(Cn2ccc3ccc(C(=O)NO)cc32)cc1 | 454 | 488 | 490 | 472 | 475 | 484 | 452 | 483 | 452 | 474 | 487
C[C@@H](Oc1cc(-n2cnc3ccc(CN4CCN(C)CC4)cc32)sc1C(N)=O)c1ccccc1C(F)(F)F | 250 | 254 | 262 | 268 | 277 | 276 | 256 | 262 | 246 | 358 | 361
C[C@@H]1CN(CC(=O)Nc2ccc3c(c2)Cc2cccc(-c4cc(=O)cc(N5CCOCC5)o4)c2S3)C[C@H](C)O1 | 430 | 470 | 493 | 484 | 457 | > 500 | 461 | 456 | > 500 | > 500 | 480
C[C@H](NC(=O)Cc1cc(F)cc(F)c1)C(=O)N[C@@H]1C(=O)N(C)c2ccccc2-c2ccccc21 | 392 | 472 | 472 | 388 | 430 | 478 | 493 | 441 | 406 | 456 | 497
Cc1c(-c2c(-c3ccc(F)o3)sc3ncnc(O[C@H](Cc4ccccc4OCc4ccnn4CC(F)(F)F)C(=O)O)c23)ccc(OCCN2CCN(C)CC2)c1Cl | 185 | 351 | 367 | 239 | 370 | > 500 | 388 | 428 | 234 | 485 | > 500
Cc1c(Cn2c(C)nc3c(C(=O)O)cc(N4CCOCC4)cc32)cccc1C(F)(F)F | 500 | > 500 | 488 | 488 | 495 | 498 | 495 | 498 | 499 | > 500 | 497
Cc1ncc(Cl)cc1NCc1ccc(C(=O)N[C@@H](CC2CCCC2)C(=O)NC2CC2)s1 | 491 | 476 | > 500 | 468 | > 500 | > 500 | > 500 | 488 | 456 | > 500 | > 500
O=C(NOC[C@H](O)CO)c1ccc(F)c(F)c1Nc1ccc(I)cc1F | 262 | 376 | 490 | 325 | 471 | 480 | 481 | 447 | 488 | > 500 | 461
O=c1cc(-c2cccc3c2Sc2ccccc2S3)oc(N2CCOCC2)c1 | 455 | > 500 | 498 | 500 | 498 | > 500 | 497 | > 500 | 490 | > 500 | > 500
S=c1nc[nH]c2nc[nH]c12 [6-Mercaptopurine] | 478 | 402 | 449 | 443 | 429 | 451 | 460 | 469 | > 500 | 465 | 420
Nc1nc(=S)c2[nH]cnc2[nH]1 [6-Thioguanine] | 462 | 390 | 437 | 381 | 432 | 457 | 448 | 443 | 484 | 476 | 412
COCCOc1cnc2ccn([C@H](C)c3nnc4c(F)cc(-c5cnn(C)c5)cn34)c(=O)c2c1 [AMG 337] | 446 | 488 | 488 | 483 | 494 | 495 | > 500 | – | – | – | > 500
Cc1c2oc3c(C)ccc(C(=O)N[C@@H]4C(=O)N[C@H](C(C)C)C(=O)N5CCC[C@H]5C(=O)N(C)CC(=O)N(C)[C@@H](C(C)C)C(=O)O[C@@H]4C)c3nc-2c(C(=O)N[C@@H]2C(=O)N[C@H](C(C)C)C(=O)N3CCC[C@H]3C(=O)N(C)CC(=O)N(C)[C@@H](C(C)C)C(=O)O[C@@H]2C)c(N)c1=O [Actinomycin D] | 160 | 127 | 205 | 114 | 150 | 187 | 215 | – | 134 | 222 | 169
CS(=O)(=O)OCCCCOS(C)(=O)=O [Busulfan] | > 500 | > 500 | 489 | > 500 | > 500 | > 500 | 490 | – | – | – | 485
CN(C)C(=N)NC(=N)N [Metformin] | 469 | > 500 | > 500 | > 500 | > 500 | 482 | > 500 | – | – | – | > 500
O=C1c2c(O)ccc(O)c2C(=O)c2c(NCCNCCO)ccc(NCCNCCO)c21 [Mitoxantrone] | 294 | 285 | 274 | 222 | 257 | 319 | 340 | – | 208 | 405 | 313
CCCCCCCCCCCCCCCCCCOP(=O)([O-])OC1CC[N+](C)(C)CC1 [Perifosine] | 470 | – | > 500 | 480 | 499 | > 500 | > 500 | > 500 | > 500 | 482 | –
CO[C@@H](C)Cn1c(=O)n(C)c2cnc3ccc(-c4cncc(C(C)(C)O)c4)cc3c21 [Samotolisib] | 372 | 361 | 364 | 334 | 357 | 446 | – | 424 | 306 | 442 | 406
O=C(/C=C\n1cnc(-c2cc(C(F)(F)F)cc(C(F)(F)F)c2)n1)NNc1cnccn1 [Selinexor] | 360 | 378 | 345 | 319 | 387 | 443 | – | 415 | 349 | 489 | 395
Cn1cnc2c(F)c(Nc3ccc(Br)cc3Cl)c(C(=O)NOCCO)cc21 [Selumetinib] | 369 | 430 | 499 | 412 | > 500 | > 500 | – | 464 | > 500 | > 500 | 491
CO[C@H]1C[C@@H]2CC[C@@H](C)[C@@](O)(O2)C(=O)C(=O)N2CCCC[C@H]2C(=O)O[C@H]([C@H](C)C[C@@H]2CC[C@@H](O)[C@H](OC)C2)CC(=O)[C@H](C)/C=C(\C)[C@@H](O)[C@@H](OC)C(=O)[C@H](C)C[C@H](C)/C=C/C=C/C=C/1C [Sirolimus] | 391 | 464 | 389 | 319 | 257 | > 500 | – | > 500 | 249 | 476 | > 500
CCN(CC)CCNC(=O)c1c(C)[nH]c(/C=C2\C(=O)Nc3ccc(F)cc32)c1C [Sunitinib] | 385 | 437 | 463 | 419 | 424 | > 500 | – | 498 | 471 | 461 | 464
CC(=O)Nc1cccc(-n2c(=O)n(C3CC3)c(=O)c3c(Nc4ccc(I)cc4F)n(C)c(=O)c(C)c32)c1 [Trametinib] | 172 | 281 | 396 | 214 | 394 | 428 | – | 380 | 331 | > 500 | 418
COc1cc2/c(=N/c3ccc(Br)cc3F)nc[nH]c2cc1OCC1CCN(C)CC1 [Vandetanib] | 340 | 428 | 459 | 373 | 429 | 449 | – | 446 | 474 | 487 | 410
CC1(C)CCC(CN2CCN(c3ccc(C(=O)NS(=O)(=O)c4ccc(NCC5CCOCC5)c([N+](=O)[O-])c4)c(Oc4cnc5[nH]ccc5c4)c3)CC2)=C(c2ccc(Cl)cc2)C1 [Venetoclax] | 435 | 470 | 456 | 471 | 465 | 468 | – | 464 | 472 | 465 | 461
